# US11628186B2, “Method and composition for the reduction of viral replication, duration and spread of the COVID-19 and the flu” (priority 2017, dated 2023)
# Assays:
# [1] = test system: patients with lung diseases including COPD; assay: Comparison of inhaled salts of pyruvate, 5 ml of 5 mM solution (Table II)
# [2] = test system: patients with or without lung damage; assay: Controlled inhalation studies of 20 mM sodium pyruvate in saline; assay type: in vivo, human
# Procedure: Sodium chloride is mainly used as nasal or lung moisturizer. […] They produce no change to FEV-1 or SaO2 measurements. It must be noted that there is a difference between people who have transient hypoxemia vs. one that has permanent hypoxemia. The patients respond differently to the inhalation of 20 mM sodium pyruvate in saline by itself without calcium, phosphate and magnesium. Sodium pyruvate formulations both given orally or by inhalation will increase SaO2 levels in people without lung injury to the alveoli structure especially the mitochondria that can synthesis the phospholipids needed for oxygen exchange and uptake. Transient hypoxemia is a self-correcting effect. It occurs in over exercising, mountain climbing etc. […] In patients with infections, i.e. CF and allergic Rhinitis, Nitric Oxide increase by over 400% over base line measurements with the use of the sodium pyruvate, calcium, phosphate and magnesium formula, needed to fight infections and lung cancer (see table IV).
# [3] = test system: patients with sinus & lung diseases including IPF and COPD; assay: Salts of pyruvate as 20 mM nasal sprays (Table IX)
# Text: They never tested the individual salts for their ability to reduce inflammation or increase lung functions.
# [4] = test system: Asthmatic and COPD patients; assay: Phase I/II clinical trials of sodium pyruvate in saline by inhalation; assay type: in vivo, human
# [5] = test system: patients with sinus & lung diseases including IPF and COPD; assay: 20 mM sodium pyruvate nasal sprays with individual or combined ions (Table X); assay type: in vivo, human
# Text: This patent combined dozens of ingredients, including the use of enzyme, growth factors, sugars, nucleotide and vitamins, amino acids and sodium pyruvate, other nutrients and calcium chloride, magnesium chloride and calcium phosphate other ingredients to stimulate the growth of cartilage and collagen for knees and joints.
# [6] = test system: patients with hypoxemia with and without lung diseases; assay: Comparison of 5 ml of 5 mM sodium pyruvate saline formulas (Table III); assay type: in vivo, human; settings: 5 ml of 5 mM formula
# [7] = Rat studies of irritation or toxicity; assay type: in vivo; settings: 100× concentrations of the 5 mM sodium pyruvate
# Text: Ethane and alcohol are lung irritants.
# [8] = test system: patients suffering from severe lung injury or mitochondrial damage or COPD and Hypoxemia; assay: Two months nebulized treatment, lung capacity; assay type: in vivo, human; settings: phosphate and magnesium
# Text: Total lung capacity is the volume in the lungs at maximal inflation, the sum of VC and RV. RV is the residual volume of air remaining in the lungs after a maximal exhalation. VC vital capacity is the volume of air breath out after the deepest inhalation. Vital capacity in males is 4.8 liters and in women 3.8 liters. Slow vital capacity (SVC) is the maximum volume of air that can be exhaled slowly after slow maximum inhalation. Three male patients suffering from severe lung injury or mitochondrial damage or COPD and Hypoxemia were treated as described below for two (2) months. […] In fact, dramatic results were observed within two (2) weeks.
# […] The sterile pyruvate 15 solution is placed into a “Pulmo Aid” nebulizer manufactured by DeVilbiss Co., Somerset, Pa. 15501-0635. The sterile pyruvate solution is nebulized by the Pulmo Aid device fitted with a disposable nebulizer and inhaled by the patient. The patient inhales normally from the Pulmo Aid nebulizer until all of the solution has been nebulized and inhaled. This inhalation step typically takes about ten (10) to twenty 20 (20) minutes. The patients were treated with this inhalation therapy periodically. Initially, treatments are about four (4) times a day at about six (6) hour intervals. Treatments were reduced to three (3) times a day at about eight (8) hour intervals after 20 days of therapy. […]
# [9] = 20 mM (0.22%) nasal spray in 0.9% sodium chloride
# [10] = 5 ml of the 0.5 mM solution in saline
# [11] = 20 mM sodium pyruvate nasal spray in saline with the listed ions
smiles,measurement,setting,value
"CC(=O)C(=O)[O-].[Na+] [Sodium, sodium pyruvate]",Increased in FEV-1%,"[1]; 5 ml of 5 mM solution in saline, inhaled",2.0%
same,Irritation,"[1]; 5 ml of 5 mM solution, inhaled",none
same,Percentage Increase in SaO2 over baseline,"[1]; 5 ml of 5 mM solution, inhaled",1%
same,Percentage increase of Nitric Oxide over baseline,"[1]; 5 ml of 5 mM solution, inhaled",19.0%
same,"Relief of congestion, coughing and lung tightness","[1]; 5 ml of 5 mM solution, inhaled",5
same,Overall Rating 1-10,"[1]; 5 ml of 5 mM solution, 1 most negative, 10 best",8
same,SaO2 levels,"[2]; Patients with lung damage, like in smokers, 20 mM without calcium, phosphate and magnesium",did not show an increase SaO2 levels
same,"increase of SaO2, average","[2]; patients with no lung injuries or disease, after exercising, 20 mM in saline",3%
same,Increased in FEV-1%,[3]; [9],12.0%
same,Irritation,[3]; [9],none
same,Percentage Increase in SaO2 over baseline,[3]; [9],2%
same,Percentage increase of Nitric Oxide over baseline,[3]; [9],19.0%
same,"Relief of congestion, coughing and lung tightness",[3]; [9],6
same,Overall Rating 1-10,"[3]; 20 mM (0.22%) nasal spray, 1 most negative, 10 best",7
same,increasing FEV1 values,[4]; [10],over 12%
same,reducing nitric oxide,[4]; [10],19.2%
same,FEV1 values,[4]; higher concentrations 1.5 mM or 5.0 mM in saline,did not increase FEV1 values
same,increase nitric oxide levels,[4]; solutions of 1.5 to 5 mM,19%
same,Increased in FEV-1%,[5]; [11],12.0%
same,Irritation,[5]; [11],None
same,Percentage Increase in SaO2 over baseline,[5]; [11],2%
same,Percentage increase of Nitric Oxide over baseline,[5]; [11],20.0%
same,"Relief of congestion, coughing and lung tightness",[5]; [11],6
same,Overall Rating 1-10,"[5]; 1 most negative, 10 best",7
same,Percentage Increase in FEV-1 over baseline,[6]; inhaled,4.0%
same,Percentage Increase in SaO2 over baseline,[6]; inhaled,0%
same,Percentage increase of Nitric Oxide over baseline,[6]; inhaled,18.0%^
same,Relief of Congestion and lung tightness 1-10,[6]; inhaled,5
same,Relief of coughing percentage decrease in four hours,[6]; inhaled,15%
same,Overall Rating 1-10,"[6]; 1 most negative, 10 best",7
same,irritation or toxicity,[7],not to have any irritation or toxicity
same,improvement in SaO2 levels,"[8]; one of the three patients, end of the two months, without calcium",3%
same,"improvement in lung functions, especially total lung capacity","[8]; same three patients, formulas without the calcium",no or little improvement in lung functions
